# From patent US7087714B2, “Mu-Opiod receptor splice variant polypeptides” (Memorial Sloan-Kettering Cancer Center, priority 2001, dated 2006)
# Key:
# exon 11-containing mRNA = assay: RT-PCR of exon 11-containing mRNA in brains of mice given antisense i.c.v.; assay type: in vivo, mouse; conditions: 10 μg i.c.v. daily for 4 days, brain RNA on fifth day
# MOR-1 gene = assay: In vivo antisense mapping, radiant heat tailflick assay of opioid analgesia; parameters: species or system mice; conditions: 5 μg oligodeoxynucleotide on days 1, 3 and 5, tailflick on day 6
# [1] = tested on: exon 11-like immunoreactivity (E11-LI); assay: Immunohistochemical labeling (exon 11-like immunoreactivity) in striatum after antisense treatment; assay type: in vivo, mouse; conditions: 10 μg i.c.v. daily for 4 days, perfused on fifth day; p<0.05
Substance,lowering of the levels of exon 11 expression (RT-PCR) (exon 11-containing mRNA),"effect on opioid (morphine or M6G) analgesia, mismatch control (MOR-1 gene)",downregulation of immunohistochemical labeling in the striatum compared to the control group [1],effect on spinal (i.t.) M6G analgesia (MOR-1 gene),effect on spinal (i.t.) morphine analgesia (MOR-1 gene),effect on supraspinal (i.c.v.) M6G analgesia (MOR-1 gene),effect on supraspinal (i.c.v.) morphine analgesia (MOR-1 gene)
"mismatch E11A: mismatch probe based upon the 11a antisense probe: 5′GACGATCACGTGTGCTCATGACAT3′ (SEQ ID NO 50) (listed as DNA, chemistry not given here) [reference compound]",inactive,inactivity,without effect,,,,
"exon 1 probe: antisense probe targeting exon 1: 5′CGCCCCAGCCTCTTCCTCT3′ (SEQ ID NO 47) (listed as DNA, chemistry not given here)",,,,inactive,not spinally,inactive,reduced
"antisense E11A: antisense oligodeoxynucleotide targeting exon 11: 5′GACAGTCACTGGTGCCTATGCAAT3′ (SEQ ID NO 48) (DNA, backbone not given here)",approximately 40%,,over 50%,,,,
